Holding throughout (format): functional
The test system of assay [1] is Rumex acetosa. As to the kind of experiment: Ratio in stewed sorrel was determined.
Assay [2] has as its system Rumex acetosa. Put plainly: Ratio in microwaved sorrel was determined.
In assay [3] the test system is Prunus domestica. Put plainly: Ratio in bottled plum was determined.
The next assay relates to Anethum graveolens. As to the kind of experiment: Ratio in pickled dill was determined.
Assay [4] concerns Rubus. As to the kind of experiment: Ratio in botteled blackberries was determined.
Assay [5] has as its system Capsicum. Put plainly: Ratio in pickled paprika was determined.
For assay [6], the system named is Rumex acetosa. As to the kind of experiment: Ratio in steamed sorrel was determined.
Assay [7] relates to Capsicum. As to the kind of experiment: Ratio in baked paprika was determined.
Assay [8] concerns Rumex acetosa. Put plainly: Ratio in boiled sorrel was determined.
For assay [9], the system named is Rumex acetosa. Put plainly: Ratio in raw sorrel was determined.
For assay [10], the system named is Prunus domestica. As to the kind of experiment: Ratio in raw plum was determined.
Assay [11] concerns Capsicum. Put plainly: Ratio in raw paprika was determined.
Assay [12] relates to Rubus. Put plainly: Ratio in raw blackberries was determined.

Results on three compounds are retold here after ChEMBL document CHEMBL1147442, “Epimerisation of lutein to 3'-epilutein in processed foods” (2004).

The structures appear in SMILES notation.

Turning to `C=C1C=CCC(C)(C)[C@H]1/C=C/C(C)=C/C=C/C(C)=C/C=C/C=C(C)/C=C/C=C(C)/C=C/C1=C(C)C[C@@H](O)CC1(C)C`, the Ratio in the assay on Rumex acetosa [1] is reported as 8%; with Rumex acetosa [2], 5%; in the assay with Prunus domestica [3], 4.7%; with Anethum graveolens, 3%; in the assay on Rubus [4], 7.9%; with Capsicum [5] it was 2.2%. The Ratio with Rumex acetosa [6] worked out at 11.3%; in the assay with Capsicum [7] it was 5.1%; with Rumex acetosa [8] it was 6.5%.
`CC1=C[C@@H](O)CC(C)(C)[C@H]1/C=C/C(C)=C/C=C/C(C)=C/C=C/C=C(C)/C=C/C=C(C)/C=C/C1=C(C)C[C@@H](O)CC1(C)C`: the Ratio came out at 8.8% in the assay with Rumex acetosa [1]; 6.4% in the assay with Rumex acetosa [2]; 7% in the assay with Prunus domestica [3]; 13.8% in the assay with Anethum graveolens; 17.4% in the assay on Rubus [4]; 12.5% with Capsicum [5]. Further, the Ratio in the assay on Rumex acetosa [6] was found to be 9.2%; in the assay on Capsicum [7], 3.8%; with Rumex acetosa [8], 9%.
As for `CC1=C[C@H](O)CC(C)(C)[C@H]1/C=C/C(C)=C/C=C/C(C)=C/C=C/C=C(C)/C=C/C=C(C)/C=C/C1=C(C)C[C@@H](O)CC1(C)C` [LUTEIN], the Ratio in the assay on Rumex acetosa [1] is reported as 16.4%; with Rumex acetosa [2], 24%; in the assay on Rumex acetosa [9], 36%; in the assay with Prunus domestica [10], 34.2%; in the assay on Prunus domestica [3], 29.3%; in the assay with Anethum graveolens, 28.7%. The Ratio in the assay on Rubus [4] is listed as 37.4%; in the assay with Capsicum [5] it was 49.2%; in the assay on Capsicum [11], 53.5%; in the assay with Rumex acetosa [6] it was 12.7%; in the assay on Capsicum [7], 47.5%; with Rumex acetosa [8], 28.6%. For the same compound, the Ratio in the assay with Rubus [12] is 58.6%.
